Data published in patent publication US20230174608A1, “Polypeptide Derivative Having Dual Receptor Agonistic Action and Use Thereof” (TIANJIN INSTITUTE OF PHARMACEUTICAL RESEARCH CO., LTD., priority 2020, published 2023).
Marks after values point to notes of the source that are not given here. Where a SMILES comes first, the peptide text is derived from it.

Legend:
[1] = system: diet-induced obesity (DIO) mice; assay: Obese (DIO) model mice, 23 days of successive administration; assay type: in vivo, C57BL/6J Gpt mice
Description: C57BL/6J Gpt mice (purchased from GemPharmatech (Jiangsu) Co., Ltd.) (6-8-week-old) were fed with H10060 high-fat diet (purchased from Beijing HFK Bioscience Co., Ltd.) to obtain diet-induced obesity (DIO) models, mice in a blank control group (n=5) were fed with standard diets, and all the mice were fed for 11 weeks after being purchased. One day before the first administration, the mice in the model group were randomly divided into 5 groups according to their weights (within a range of 39.5-49.5 g), i.e., a model control group, a positive control group, and test compound groups (dgc005, dgc016, and dgc020), respectively, 5 mice in each group, which were administered every day by subcutaneous injection. Saline was subcutaneously injected in the blank control group and the model control group every day. The administration was performed for 23 days. The positive control drug and the test compounds were administered at a dose of 30 nmol/kg, and the administration volume for each group was 0.005 mL/g weight. The mice were weighed before each administration, and 72-h food intake was weighed every three days. The mice fasted for 16 h before the last administration, fasting blood glucose levels were determined, blood was sampled from the orbital venous plexus to determine triglycerides and total cholesterol, and the liver was taken out for pathological section observation.
The liver of each C576L/6 mouse in the groups was fixed with 12% formaldehyde and prepared into a specimen, and the tissue block was repaired, dehydrated with graded alcohol, embedded in paraffin, stained with HE, and examined under a light microscope.

[2] = system: diet-induced obesity (DIO) mice; assay: DIO model mice, weight after 2 weeks of administration; assay type: in vivo, C57BL/6N mice; conditions: 30 nmol/kg s.c. once a day, 14 days
Description: Method: C57BL/6N mice were fed with H10060 high-fat diets to obtain diet-induced obesity (DIO) models, and mice in a control group (n=5) were fed with standard diets. One day before the first administration, the mice in the model group were randomly divided into 6 groups according to their weights (within a range of 40.5-50.5 g), i.e., a model control group, a positive control group, and test compound groups (dgc003, dgc004, dgc010, and dgc017), respectively, 5 mice in each group, which were administered once a day by subcutaneous injection. Saline was subcutaneously injected into each mouse in the blank control group and the model control group every day. The administration was performed for 14 days. The positive control drug and the test compounds were administered at a dose of 30 nmol/kg, and the administration volume for each group was 0.005 mL/g weight. The mice were weighed before each administration, and 72-h food intake was weighed every three days.

[3] = system: glucose loaded normal mice; assay: Glucose loading test on normal mice after single administration; assay type: in vivo, Kunming mice; conditions: for Blood glucose reduction rate (%) / Blood glucose level after glucose loading: 30 nmol/kg single dose; for Blood glucose reduction rate (%): after glucose loading, versus model control group; for Blood glucose level after glucose loading: glucose 2.5 g/kg intragastric 60 min after administration, measured 30 min after loading; for Blood glucose level after glucose loading / Fasting blood glucose level: n=5; for Fasting blood glucose level: normal mice fasted 6 h, 30 nmol/kg group
Method: The hypoglycemic action of each compound of Example 1 was assessed by a glucose loading test on normal mice after single administration.
Method: Kunming mice (male, with a weight of 20-22 g) were acclimated in a barrier environment animal room for 3 days, divided into a blank control group, a model control group, a positive control group, and test compound groups, 5 mice in each group, and fasted for 6 h. Saline was administered to each mouse in the blank control group and the model control group, the compounds and a positive control drug were respectively administered to each mouse in the test compound groups and the positive control group at a dose of 30 nmol/kg, and the positive control drug was semaglutide. 60 min after administration, glucose was intragastrically administered to each mouse in the model control group, the positive control group, and the test compound groups at a dose of 2.5 g/kg (0.01 mL·g^−1 weight), distilled water was administered to each mouse in the blank control group, and blood glucose levels were determined 30 min after glucose loading.

[4] = system: diet-induced obesity (DIO) mice; assay: DIO mice, weight and blood glucose after multiple administrations at different doses; assay type: in vivo, C57BL/6N mice; conditions: for Fasting blood glucose (mmol/L) before the last administration / Blood glucose level (mmol/L) 0.5 h after glucose loading / Glycemic load reduction rate: Day 22; for Fasting blood glucose (mmol/L) before the last administration: fasted 16 h; for Blood glucose level (mmol/L) 0.5 h after glucose loading: glucose 1 g/kg intragastric 30 min after administration; for Glycemic load reduction rate: versus model control group; for Reduction rate of weight without fasting on day 21 compared to day 0: n=5
Description: 40 C57BL/6N mice were purchased from Beijing Vital River Laboratory Animal Technology Co., Ltd. Mice in a model group (n=35) were fed with H10060 high-fat diets to obtain diet-induced obesity (DIO) models, mice in a blank control group (n=5) were fed with standard diets, and all the mice were fed for 36 weeks. On the day of the first administration, the mice in the model group were randomly divided into 7 groups according to their weights (within a range of 45-60 g), i.e., a model control group, positive control groups (semaglutide at doses of 10 nmol/kg and 30 nmol/kg, respectively), and test compound groups (dgc005 and dgc016 at doses of 10 nmol/kg and 30 nmol/kg, respectively), 5 mice in each group. The positive control drug and the test compounds were respectively subcutaneously injected into each mouse in the positive control groups and the test compound groups every day, saline was subcutaneously injected into each mouse in the blank control group and the model control group, and the administration was performed for 22 days (the administration volume for each group was 0.005 mL/g weight). The mice were weighed before each administration, and 72-h food intake was weighed every three days. The mice fasted for 16 h before the last administration, and 30 min after administration, a glucose solution (1 g/kg, the administration volume was 0.01 mL/g weight) was intragastrically administered to each mouse for glucose tolerance test. Blood glucose levels were determined 0.5 h after glucose loading.

[5] = target: T1, GCGR (Homo sapiens, UniProt P47871); assay: GC receptor-mediated cAMP production in vitro; assay type: cell-based; conditions: HEK293 cell line stably expressing GCGR
T1 construct: expressed in transfected cells
In short: (§1)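 HEK293 cells stably expressing human GLP-1R or GCGR are stimulated with compound for 30 min in the dark in serum-free medium with 0.5 mM IBMX, with test dilutions spanning 1 μM down to 10^−3 nM. cAMP is detected after a 60 min room-temperature reaction as the 665/615 nm ratio.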

[6] = target: T2, GLP-1R (Homo sapiens, UniProt P43220); assay: GLP-1 receptor-mediated cAMP production in vitro; assay type: cell-based; conditions: HEK293 cell line stably expressing GLP-1R
T2 construct: expressed in transfected cells
In short: as §1

[7] = after 23 days of administration, 30 nmol/kg s.c. daily, n=5

T1 sequence (P47871 26-477, species assumed): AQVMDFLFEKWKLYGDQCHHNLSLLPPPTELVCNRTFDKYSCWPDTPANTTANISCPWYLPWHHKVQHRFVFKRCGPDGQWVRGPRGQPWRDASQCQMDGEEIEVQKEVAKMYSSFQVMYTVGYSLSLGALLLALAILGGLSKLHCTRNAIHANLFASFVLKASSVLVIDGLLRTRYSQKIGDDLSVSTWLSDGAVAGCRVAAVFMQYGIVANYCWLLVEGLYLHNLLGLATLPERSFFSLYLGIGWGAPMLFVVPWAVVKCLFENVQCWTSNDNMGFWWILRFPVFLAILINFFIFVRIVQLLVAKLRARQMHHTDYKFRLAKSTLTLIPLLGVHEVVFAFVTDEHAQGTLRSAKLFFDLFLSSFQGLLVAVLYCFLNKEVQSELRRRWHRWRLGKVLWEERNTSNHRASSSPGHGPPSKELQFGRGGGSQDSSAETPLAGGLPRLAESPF
T2 sequence (P43220 24-463, species assumed): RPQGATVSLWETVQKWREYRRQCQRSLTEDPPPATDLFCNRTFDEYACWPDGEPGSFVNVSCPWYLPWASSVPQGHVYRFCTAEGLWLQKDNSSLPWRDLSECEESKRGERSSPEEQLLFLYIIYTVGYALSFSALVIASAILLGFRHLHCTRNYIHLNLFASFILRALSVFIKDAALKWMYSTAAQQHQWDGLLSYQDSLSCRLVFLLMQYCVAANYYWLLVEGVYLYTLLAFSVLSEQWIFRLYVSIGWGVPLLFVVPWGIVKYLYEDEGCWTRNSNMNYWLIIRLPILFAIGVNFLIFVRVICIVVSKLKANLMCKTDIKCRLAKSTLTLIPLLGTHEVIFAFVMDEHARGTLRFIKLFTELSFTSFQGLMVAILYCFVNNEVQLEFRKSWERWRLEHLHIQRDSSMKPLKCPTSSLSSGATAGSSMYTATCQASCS

For “semaglutide [Positive control group, reference compound]”, the “Fasting blood glucose (mmol/L) before the last administration” value ([1]; 30 nmol/kg s.c. daily, 23 days, fasted 16 h, n=5) was 4.48 ± 0.84 mmol/L, the Weight decreasing rate ([1]; 30 nmol/kg s.c. every day, without fasting before the last administration compared to day 1) was 20.9% and the “Examination of liver pathological section” value ([1]; 23 days, 30 nmol/kg s.c. daily, HE stain, 2 animals) was “mild to moderate lesions”. The “TC (total cholesterol)” value [1, 7] was 3.97 ± 0.52^Δ mmol/L, the “TG (triglycerides)” value [1, 7] was 0.90 ± 0.13**^ΔΔ mmol/L and the 72-h food intake ([1]; day 4 of administration, 30 nmol/kg s.c. daily) was 3.50 g/mouse. It also gave a 72-h food intake ([1]; day 7 of administration, 30 nmol/kg s.c. daily) of 5.80 g/mouse, a 72-h food intake ([1]; day 10 of administration, 30 nmol/kg s.c. daily) of 5.40 g/mouse and a 72-h food intake ([1]; day 13 of administration, 30 nmol/kg s.c. daily) of 5.50 g/mouse. For the same compound, the “Weight decreasing rate by the last administration” value [2] was 12.9%, the “Blood glucose reduction rate (%)” value [3] was 67.18% and the “Blood glucose level after glucose loading” value [3] was 5.58 ± 1.55**^ mmol/L. The “Fasting blood glucose level” value [3] was 3.78 ± 1.28 mmol/L, the “Fasting blood glucose (mmol/L) before the last administration” value ([4]; 10 nmol/kg s.c. daily) was 5.54 ± 1.11 mmol/L and the “Blood glucose level (mmol/L) 0.5 h after glucose loading” value ([4]; 10 nmol/kg s.c. daily) was 7.06 ± 1.15 mmol/L. For the same compound, the “Glycemic load reduction rate” value ([4]; 10 nmol/kg s.c. daily) was 32.89, the “Reduction rate of weight without fasting on day 21 compared to day 0” value ([4]; 10 nmol/kg s.c. every day) was 15.28% and the “Fasting blood glucose (mmol/L) before the last administration” value ([4]; 30 nmol/kg s.c. daily) was 5.56 ± 0.91 mmol/L. The “Blood glucose level (mmol/L) 0.5 h after glucose loading” value ([4]; 30 nmol/kg s.c. daily) was 8.20 ± 0.87 mmol/L, the “Glycemic load reduction rate” value ([4]; 30 nmol/kg s.c. daily) was 22.05 and the “Reduction rate of weight without fasting on day 21 compared to day 0” value ([4]; 30 nmol/kg s.c. every day) was 18.83%.

For `CCCCCCCCCCCCCCCC(=O)N[C@@H](CCC(=O)N[C@@H](CCC(=O)NCCCC[C@H](NC(=O)[C@H](C)NC(=O)[C@H](C)NC(=O)[C@H](CCCNC(=N)N)NC(=O)[C@H](CCC(=O)O)NC(=O)[C@H](CCC(=O)O)NC(=O)[C@H](CC(C)C)NC(=O)[C@H](Cc1ccc(O)cc1)NC(=O)[C@H](CCCCN)NC(=O)[C@H](CO)NC(=O)[C@H](Cc1ccc(O)cc1)NC(=O)[C@H](CC(=O)O)NC(=O)[C@H](CO)NC(=O)[C@@H](NC(=O)[C@H](Cc1ccccc1)NC(=O)[C@@H](NC(=O)CNC(=O)[C@H](CCC(N)=O)NC(=O)C(C)(C)NC(=O)[C@@H](N)Cc1c[nH]cn1)[C@@H](C)O)[C@@H](C)O)C(=O)N[C@@H](CCC(=O)O)C(=O)N[C@@H](Cc1ccccc1)C(=O)N[C@H](C(=O)N[C@@H](C)C(=O)N[C@@H](Cc1c[nH]c2ccccc12)C(=O)N[C@@H](CC(C)C)C(=O)N[C@@H](CCC(=O)O)C(=O)N[C@@H](CO)C(=O)NCC(=O)NCC(N)=O)[C@@H](C)CC)C(=O)O)C(=O)O` [dgc010] (HELM PEPTIDE1{H.[Aib].Q.G.T.F.T.S.D.Y.S.K.Y.L.E.E.R.A.A.K.E.F.I.A.W.L.E.S.G.G.[am]}|PEPTIDE2{[CCCCCCCCCCCCCCCC(=O)[*:2]].[gGlu].[gGlu]}$PEPTIDE1,PEPTIDE2,20:R3-3:R2$$$V2.0; N-terminus assumed), the EC50 [5] was 0.614 nM, the “Weight decreasing rate by the last administration” value [2] was 16.4% and the “Blood glucose reduction rate (%)” value [3] was 52.35%. The “Blood glucose level after glucose loading” value [3] was 8.10 ± 1.13 mmol/L, the “Fasting blood glucose level” value [3] was 3.78 ± 0.84 mmol/L and the EC50 [6] was 0.537 nM.

In the case of `CCCCCCCCCCCCCCCC(=O)N[C@@H](CCC(=O)NCCCC[C@H](NC(=O)[C@H](C)NC(=O)[C@H](C)NC(=O)[C@H](CCCNC(=N)N)NC(=O)[C@H](CCC(=O)O)NC(=O)[C@H](CC(=O)O)NC(=O)[C@H](CC(C)C)NC(=O)[C@H](Cc1ccc(O)cc1)NC(=O)[C@H](CCCCN)NC(=O)[C@H](CO)NC(=O)[C@H](Cc1ccc(O)cc1)NC(=O)[C@H](CC(=O)O)NC(=O)[C@H](CO)NC(=O)[C@@H](NC(=O)[C@H](Cc1ccccc1)NC(=O)[C@@H](NC(=O)CNC(=O)[C@H](CCC(N)=O)NC(=O)C(C)(C)NC(=O)[C@@H](N)Cc1c[nH]cn1)[C@@H](C)O)[C@@H](C)O)C(=O)N[C@@H](CCC(=O)O)C(=O)N[C@@H](Cc1ccccc1)C(=O)N[C@H](C(=O)N[C@@H](C)C(=O)N[C@@H](Cc1c[nH]c2ccccc12)C(=O)N[C@@H](CC(C)C)C(=O)N[C@@H](CCC(=O)O)C(=O)N[C@@H](C)C(=O)NCC(=O)NCC(N)=O)[C@@H](C)CC)C(=O)O` [dgc003] (HELM PEPTIDE1{H.[Aib].Q.G.T.F.T.S.D.Y.S.K.Y.L.D.E.R.A.A.K.E.F.I.A.W.L.E.A.G.G.[am]}|PEPTIDE2{[CCCCCCCCCCCCCCCC(=O)[*:2]].[gGlu]}$PEPTIDE1,PEPTIDE2,20:R3-2:R2$$$V2.0; N-terminus assumed), the EC50 [5] is reported as 1.04 nM, the “Weight decreasing rate by the last administration” value [2] is reported as 16.7% and the “Blood glucose reduction rate (%)” value [3] is reported as 48.12%. For the same compound, the “Blood glucose level after glucose loading” value [3] was 8.82 ± 1.63 mmol/L, the “Fasting blood glucose level” value [3] was 4.20 ± 0.97 mmol/L and the EC50 [6] was 0.291 nM.

`CCCCCCCCCCCCCCCC(=O)N[C@@H](CCC(=O)NCCCC[C@H](NC(=O)[C@H](C)NC(=O)[C@H](C)NC(=O)[C@H](CCCCN)NC(=O)[C@H](CCC(=O)O)NC(=O)[C@H](CC(=O)O)NC(=O)[C@H](CC(C)C)NC(=O)[C@H](Cc1ccc(O)cc1)NC(=O)[C@H](CCCCN)NC(=O)[C@H](CO)NC(=O)[C@H](Cc1ccc(O)cc1)NC(=O)[C@H](CC(=O)O)NC(=O)[C@H](CO)NC(=O)[C@@H](NC(=O)[C@H](Cc1ccccc1)NC(=O)[C@@H](NC(=O)CNC(=O)[C@H](CCC(N)=O)NC(=O)C(C)(C)NC(=O)[C@@H](N)Cc1c[nH]cn1)[C@@H](C)O)[C@@H](C)O)C(=O)N[C@@H](CCC(=O)O)C(=O)N[C@@H](Cc1ccccc1)C(=O)N[C@H](C(=O)N[C@@H](C)C(=O)N[C@@H](Cc1c[nH]c2ccccc12)C(=O)N[C@@H](CC(C)C)C(=O)N[C@@H](CCC(=O)O)C(=O)NCC(=O)NCC(N)=O)[C@@H](C)CC)C(=O)O` [dgc017] (HELM PEPTIDE1{H.[Aib].Q.G.T.F.T.S.D.Y.S.K.Y.L.D.E.K.A.A.K.E.F.I.A.W.L.E.G.G.[am]}|PEPTIDE2{[CCCCCCCCCCCCCCCC(=O)[*:2]].[gGlu]}$PEPTIDE1,PEPTIDE2,20:R3-2:R2$$$V2.0; N-terminus assumed) was tested, and the EC50 [5] was 3.95 nM, the “Weight decreasing rate by the last administration” value [2] was 15.9% and the “Blood glucose reduction rate (%)” value [3] was 39.06%. The “Blood glucose level after glucose loading” value [3] was 10.36 ± 1.87 mmol/L, the “Fasting blood glucose level” value [3] was 3.72 ± 0.37 mmol/L and the EC50 [6] was 0.627 nM.
